According to US12110295B2, “WD40 repeat domain protein 5 (WDR5) degradation/disruption compounds and methods of use” (Icahn School of Medicine at Mount Sinai, priority 2018, dated 2024):
Entries after “also recorded” stand apart in the source; their conditions may differ.

How the values were obtained:
MV4;11 cells = experiment: Cell viability assay (trypan blue, live cell count) in MV4;11 cells; assay type: cell-based; details: 0.1, 0.5, 1, 5 and 10 μM, 72 h, FIG. 4
Experimental: MV4;11 cells were treated with DMSO or the indicated compounds at indicated concentration of 0.1 μM, 0.5 μM, 1 μM, 5 μM, and 10 μM for 72 hours.
MV4;11 cells were purchased from ATCC and cultured in RPMI 1640 supplemented with 10% FBS and 1% Penicillin/Streptomycin.
0.5×10^6 MV4;11 cells were seeded in 2 mL medium for each well in 12-well plates. WDR5 degraders in DMSO were added to the medium at indicated concentrations. DMSO was used as the control. Each treatment was done in duplicate wells. After 72 h treatment, 1 part cell suspension from each treatment was mixed with 1 part 0.4% trypan blue respectively. The mixture was allowed to incubate for ˜3 min at room temperature and live cells were counted by automated cell counter.

WDR5 [1] = molecular target: T1, WDR5 (Homo sapiens, UniProt P61964); details: MV4;11 cells, summary of FIGS. 1-3
Experimental: MV4;11 cells were treated with DMSO or indicated compounds at 1 μM and 10 μM for 18 hours.
MV4;11 cells were treated with DMSO or indicated compounds at 0.1 μM, 0.5 μM, 1 μM, 5 μM, and 10 μM for 18 hours.
MV4;11 cells were treated with DMSO or indicated compounds at a fixed concentration of 0.5 μM for 1, 2, 4, 8, 16, or 24 hours.
MV4;11 cells were treated with DMSO or indicated compounds at 0.1 μM and 0.5 μM for 18 hours. […] MV4;11 cells were treated with DMSO or indicated compounds at 0.1 μM and 1.0 μM for 18 hours.
WDR5 degraders were dissolved in DMSO and DMSO with no degraders was used as the control. 1×10^6 MV4;11 cells or 1×10^5 MIAPACA2 or 2×10^5 Hela cells were seeded in 2 mL medium for each well in 24-well plates.
And cells were collected at indicated timepoints: 1 h, 2 h, 4 h, 8 h, 16 h, and 24 h.

WDR5 [2] = molecular target: T1, WDR5; experiment: Western blot of WDR5 protein levels in MIAPACA2 cells; assay type: cell-based; set-up: After WDR5 degrader treatment, cells were collected and lysed; endogenous in cells; host or cells: MV4;11 and/or MIAPACA2; details: MIAPACA2 cells, 0.1, 0.5, 1, 5 and 10 μM, 18 h, FIG. 5
Experimental: MIAPACA2 cells were treated with DMSO or indicated compounds at 0.1 μM, 0.5 μM, 1 μM, 5 μM, and 10 μM for 18 hours.
MIAPACA2 cells were treated with DMSO or indicated compounds at 0.5 μM and 1.0 μM for 18 hours.
MIAPACA2 cells were treated with DMSO or indicated compounds at 0.1 μM and 0.5 μM for 18 hours.
MIAPACA2 cells were treated with DMSO or indicated compounds at 0.5 μM and 1.0 μM or at 1.0 μM and 10 μM for 18 hours.
MIAPACA2 and Hela cells were cultured in DMEM supplemented with 10% FBS and 1% Penicillin/Streptomycin.
WDR5 degraders were dissolved in DMSO and DMSO with no degraders was used as the control. 1×10^6 MV4;11 cells or 1×10^5 MIAPACA2 or 2×10^5 Hela cells were seeded in 2 mL medium for each well in […].
For prescreening of all the compounds, each test compound was added to the medium at indicated concentrations. After 18 h treatment, cells were collected.
After WDR5 degrader treatment, cells were collected and lysed. Total cell lysates were used for western blot. The following primary antibodies were used: WDR5 (Santa Cruz), vinculin (Cell Signaling Technology), tubulin (Cell Signaling Technology), GAPDH (Santa Cruz). Blots were imaged using fluorescence-labeled secondary antibodies on ChemiDoc™ Imaging Systems.

WDR5 [3] = molecular target: T1, WDR5; experiment: Screening of putative WDR5 degraders by Western blot in MV4;11 and/or MIAPACA2 cells; assay type: cell-based; set-up: After WDR5 degrader treatment, cells were collected and lysed; endogenous in cells; host or cells: MV4;11 and/or MIAPACA2; details: summary of screening, FIGS. 6-10
Procedure, shortened: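 MV4;11 (1×10^6/well) or MIAPACA2 (1×10^5/well) cells treated 18 h with compound at paired doses between 0.1 and 10 μM, DMSO as control. Total lysates immunoblotted for WDR5 with vinculin, tubulin or GAPDH loading controls; fluorescent secondary detection.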

With `Cc1ncsc1-c1ccc(CNC(=O)[C@@H]2C[C@@H](O)CN2C(=O)[C@@H](NC(=O)CCCCCCCCCC(=O)NCCN2CCN(Cc3cccc(-c4ccc(N5CCN(C)CC5)c(NC(=O)c5c[nH]c(=O)cc5C(F)(F)F)c4)c3)CC2)C(C)(C)C)cc1` [XF048-133, N^1-((S)-1-((2S,4R)-4-hydroxy-2-((4-(4-methylthiazol-5-yl)benzyl)carbamoyl)pyrrolidin-1-yl)-3,3-dimethyl-1-oxobutan-2-yl)-N^11-(2-(4-((4′-(4-methylpiperazin-1-yl)-3′-(6-oxo-4-(trifluoromethyl)-1,6-dihydropyridine-3-carboxamido)-[1,1′-biphenyl]-3-yl)methyl)piperazin-1-yl)ethyl)undecanediamide] the “viability of MV4;11 cells” value (MV4;11 cells) was “reduced the viability of MV4;11 cells much more significantly than the WDR5 inhibitor OICR-9429; also recorded: reduced the viability of MV4;11 cells much more significantly than the WDR5 inhibitor OICR-9419”, the “reduction of WDR5 protein levels in a concentration- and time-dependent manner” value (WDR5 [1]) was “effective in reducing WDR5 protein levels” and the “reduction of WDR5 protein levels, concentration-dependent” value (WDR5 [2]) was “reduced WDR5 protein levels”. For the same compound, the “effective degradation of WDR5 in MV4;11 and/or MIAPACA2 cells” value (WDR5 [3]) was “able to effectively degrade WDR5”.
